Source: paper PMC9959748, “Nucleoside Analogs That Inhibit SARS-CoV-2 Replication by Blocking Interaction of Virus Polymerase with RNA” (International Journal of Molecular Sciences, 2023)
Where two headings read alike, the source gives them in different places.

Key:
[1] = system: SARS-CoV-2; assay: microbe, parasite or virus in culture; format: cell-based, SARS-CoV-2 (hCoV-19/Russia/Moscow-PMVL-12/2020 strain); details: for log reduction at 50 µM: Severe acute respiratory syndrome coronavirus 2, Vero C1008, 96 h, read-out: Δlog10(RNA), logarithmic change in the SARS-CoV-2 RNA levels; for Effect on SARS-CoV-2 viral RNA titer: summary of Table 1
[2] = system: SARS-CoV-2; assay: microbe, parasite or virus in culture; format: cell-based, SARS-CoV-2 (hCoV-19/Russia/Moscow-PMVL-12/2020 strain); details: for Effect on SARS-CoV-2 infectivity, TCID50 in Vero cells: summary of Table 1; for log reduction at 20 µM: measured at 20 µM
[3] = system: Influenza A/California/7/2009 (H1N1)pdm09; assay: organism not typed; format: cell-based, Influenza virus; details: for IC50: read-out: IC50 ± SD Influenza Virus; for log reduction at 50 µM: read-out: Δlog10(TCID50) Influenza Virus; for SI (selectivity index), the ratio of CD50 to IC50: influenza virus
[4] = molecular target: SARS-CoV-2 RdRp holoenzyme (nsp12, nsp7, nsp8) (Severe acute respiratory syndrome coronavirus 2, UniProt P0DTD1); assay: biochemical; format: biochemical; details: for Inhibition of RNA extension by RdRp: 1 mM inhibitor pre-incubated with RdRp before RNA substrate (Figure 3A); for IC50: RdRp pre-incubated with inhibitor, then RNA substrate and ATP added, read-out: IC50 for inhibition of RdRp activity (RNA extension)
[5] = molecular target: T1, SARS-CoV-2 RdRp (Severe acute respiratory syndrome coronavirus 2, UniProt P0DTD1); assay: Electrophoretic mobility shift assay of RNA binding by RdRp; details: 1 mM inhibitor incubated with RdRp before RNA substrate
[6] = system: Vero E6 cells
[7] = system: MDCK cells; details: concentration decreasing cell number by 50%
[8] = system: SARS-CoV-2 PIK35 strain; set-up: method as in PMID 35127150; details: Vero cells, read-out: EC50, inhibition of the reproduction of SARS-CoV-2; cited from earlier work
[9] = molecular target: T1, SARS-CoV-2 RdRp; details: cited from earlier work
[10] = Severe acute respiratory syndrome coronavirus 2, Vero C1008, Vero E6, vs DMSO-treated control, read-out: Δlog10(TCID50) SARS-CoV-2
[11] = African green monkey (Chlorocebus aethiops)
[12] = concentration reducing the cell number by 50%, MTT

Molecule	Anti-SARS-CoV-2 activity grade [1]	log reduction at 50 µM [1]	Effect on SARS-CoV-2 viral RNA titer [1]	log reduction at 50 µM [2, 10]	Effect on SARS-CoV-2 infectivity, TCID50 in Vero cells [2]	IC50 ([3]; MDCK)	log reduction at 50 µM ([3]; at 50 µM, MDCK cells)	Inhibition of RNA extension by RdRp [4]	CD50 ± SD Vero E6 [6, 11]	CD50 ± SD MDCK [7]	also measured
CC(C)(C)c1ccc(-c2cc3cn(COCCO)c(=O)[nH]c-3n2)cc1 [Compound 14, 3-((2-(Hydroxy)ethoxy)methyl)-6-(4-tert-butylphenyl)-3H-pyrrolo [2,3-d]-pyrimidine-2-one]	Moderate activity	0.4	only weakly affected	1	stronger effects	~1 µM	1.5	completely blocked RNA synthesis	310 ± 24 µM	74 ± 18 µM	SI (selectivity index), the ratio of CD50 to IC50 ([3]; MDCK cells): 110.61; IC50 [3]: 0.67 ± 0.12 µM; IC50 [4]: 244 ± 58 µM; Inhibition of RNA binding by RdRp, EMSA [5]: fully prevented RNA binding
CC(C)(C)c1ccc(Nc2cn(C3C=CC(O)C3)c(=O)[nH]c2=O)cc1 (stereo not shown) [Compound 8]	Moderate activity	1.1	visible reduction	0.5	weak protection	> 50 µM	0.5		>500 µM	552 ± 35 µM	
CCCCCc1ccc(-c2cc3cn([C@@H]4O[C@H](CO)[C@@H](O)[C@H]4O)c(=O)[nH]c-3n2)cc1 [Compound 6, 3-(β-D-ribofuranosyl)-6-(4-pentylphenyl)-3H-pyrrolo [2,3-d]-pyrimidine-2-on]		0.2	inactive	0	inactive	> 50 µM	0		450 ± 166 µM	614 ± 52 µM	
CCOC(=O)C1=C[C@@H](OC(CC)CC)[C@H](NC(C)=O)[C@@H](N)C1 [Oseltamivir, reference compound]						0.61 ± 0.15 µM				500 ± 82 µM	SI (selectivity index), the ratio of CD50 to IC50 ([3]; MDCK cells): 820
CCCCCc1ccc(-c2cc3cn(C4C=CC(O)C4)c(=O)nc3o2)cc1 (stereo not shown) [Compound 3]	Moderate activity	1.3				> 50 µM	0	completely blocked RNA synthesis	>500 µM	442 ± 21 µM	log reduction at 20 µM [2, 10]: 0.5
1-(β-D-Ribofuranosyl)-5-(4-tert-butylphenoxy)-uracil [Compound 13]	Moderate activity									>1000 µM	Δlog10(RNA), logarithmic change in the SARS-CoV-2 RNA levels [1]: 0.8; Δlog10(TCID50) Influenza Virus ([3]; at 50 µM, MDCK cells): 0.5; IC50 [3]: > 50 µM; CD50 ± SD Vero E6 [6, 12]: >500 µM
CC(C)(C)c1ccc(-c2cc3cn(C4C=CC(O)C4)c(=O)nc3[nH]2)cc1 (stereo not shown) [Compound 2, 1-(4’-hydroxy-2’-cyclopenten-1-yl)-6-(4-tert-butylphenyl)-3H-pyrrolo [2,3-d]-pyrimidine-2-one]		0.3				~1 µM	1.5		150 ± 15 µM	68 ± 5 µM	log reduction at 20 µM [2, 10]: 0.5; SI (selectivity index), the ratio of CD50 to IC50 ([3]; MDCK cells): 49.60; IC50 [3]: 1.37 ± 0.28 µM; EC50 [8]: 53 µM
CC(C)(C)c1ccc(Oc2cn(C3C=CC(O)C3)c(=O)[nH]c2=O)cc1 (stereo not shown) [Compound 11]	Moderate activity	0.7				> 50 µM	-0.5		440 ± 6 µM	>1000 µM	log reduction at 20 µM [2, 10]: 1
CCCCCc1ccc(-c2cc3cn(COCCO)c(=O)[nH]c-3n2)cc1 [Compound 7, 3-((2-(Hydroxy)ethoxy)methyl)-6-(4-pentylphenyl)-3H-pyrrolo [2,3-d]-pyrimidine-2-one]		0.4	inactive	0	inactive	> 50 µM	0.5		240 ± 19 µM	74 ± 12 µM	
CC(C)(C)c1ccc(Oc2cn(C3C=CC(O)C3)c(=O)n(C3C=CC(O)C3)c2=O)cc1 (stereo not shown) [Compound 10]		0.8				> 50 µM	-0.5	completely blocked RNA synthesis	500 ± 30 µM	418 ± 42 µM	log reduction at 2 µM ([2]; Severe acute respiratory syndrome coronavirus 2, Vero C1008, measured at 2 µM (footnote ***), Vero E6, vs DMSO-treated control, read-out: Δlog10(TCID50) SARS-CoV-2): 0.5; Inhibition of RNA binding by RdRp, EMSA [5]: fully prevented RNA binding
Cc1c(C)c2c(c3c1CC[n+]1ccc(/C=C4\Sc5ccccc5N4C)cc1-3)-c1cccc(/C=C3\Sc4ccccc4N3C)[n+]1CC2 [PR673]											IC50 [9]: ~4 µM
O=C(N[C@@H](Cc1ccc(O)cc1)C(=O)O)c1cc(-c2ccccc2)c(=O)n2c1sc1ccc(OC3CCCCC3)cc12 [HeE1-2Tyr]											IC50 [9]: 27 µM
CCCCCc1ccc(-c2cc3cn(COCCO)c(=O)nc3o2)cc1 [Compound 5, 3-((2-(Hydroxy)ethoxy)methyl)-6-(4-pentylphenyl)-3H-furano [2,3-d]-pyrimidine-2-on]	Moderate activity	0.3	only weakly affected	1	stronger effects	~1 µM	1.5	completely blocked RNA synthesis	400 ± 98 µM	686 ± 46 µM	IC50 [3]: 1.34 ± 0.33 µM; IC50 [4]: 72 ± 20 µM
O=c1nc(NO)ccn1[C@@H]1O[C@H](CO)[C@@H](O)[C@H]1O [NHC, N4-hydroxycitidine, reference compound]											Δlog10(RNA), logarithmic change in the SARS-CoV-2 RNA levels ([1]; measured at 10 µM (footnote *), Vero E6, vs DMSO): 3.9 *; CD50 ± SD Vero E6 [6, 12]: 80 ± 18 µM
CC(C)(C)c1ccc(Nc2cn(C3C=CC(O)C3)c(=O)n(C3C=CC(O)C3)c2=O)cc1 (stereo not shown) [Compound 9]		0.8		0.5		> 50 µM	0.5	weaker effects	220 ± 23 µM	392 ± 9 µM	
CCCCCc1ccc(-c2cc3cn([C@@H]4O[C@H](CO)[C@@H](O)[C@H]4O)c(=O)nc3o2)cc1 [Compound 4, 3-(β-D-Ribofuranosyl)-6-(4-pentylphenyl)-3H-furano [2,3-d]-pyrimidine-2-on]		0.2				> 25 µM	1		>500 µM	652 ± 77 µM	log reduction at 20 µM [2, 10]: 0.5
